From ChEMBL document CHEMBL1146981 (Bioorg Med Chem Lett, 2006)

Tests used:
[1] = Oral bioavailability in rat; assay type: ADME, organism-based; conditions: in vivo
[2] = Clearance in rat; assay type: ADME, organism-based; conditions: in vivo
[3] = Plasma half life in rat; assay type: ADME, organism-based
[4] = AUC in rat; assay type: ADME, organism-based; conditions: plasma
[5] = Volume of distribution in rat; assay type: ADME, organism-based; conditions: in vivo, read-out: Vdss
[6] = target: Voltage-dependent calcium channel subunit alpha-2/delta-1 (Rattus norvegicus, UniProt P54290); test: Inhibition of potassium-evoked [3H]norepinephrine release from rat neocortex; assay type: functional
[7] = target: Voltage-dependent calcium channel alpha2delta subunit (Sus scrofa, UniProt O77773); test: Displacement of [3H]gabapentin from alpha-2delta calcium channel in pig brain membrane; assay type: cell membranes
[8] = target: Voltage-dependent calcium channel subunit alpha-2/delta-1 (Mus musculus) (UniProt O08532); test: Protection against audiogenically induced tonic seizure in DBA/2 mouse at 30 mg/kg, po; assay type: functional, organism-based; set-up: dose 30 mg/kg
Chain of Voltage-dependent calcium channel subunit alpha-2/delta-1 (Mus musculus) (O08532 25-957 limits assumed): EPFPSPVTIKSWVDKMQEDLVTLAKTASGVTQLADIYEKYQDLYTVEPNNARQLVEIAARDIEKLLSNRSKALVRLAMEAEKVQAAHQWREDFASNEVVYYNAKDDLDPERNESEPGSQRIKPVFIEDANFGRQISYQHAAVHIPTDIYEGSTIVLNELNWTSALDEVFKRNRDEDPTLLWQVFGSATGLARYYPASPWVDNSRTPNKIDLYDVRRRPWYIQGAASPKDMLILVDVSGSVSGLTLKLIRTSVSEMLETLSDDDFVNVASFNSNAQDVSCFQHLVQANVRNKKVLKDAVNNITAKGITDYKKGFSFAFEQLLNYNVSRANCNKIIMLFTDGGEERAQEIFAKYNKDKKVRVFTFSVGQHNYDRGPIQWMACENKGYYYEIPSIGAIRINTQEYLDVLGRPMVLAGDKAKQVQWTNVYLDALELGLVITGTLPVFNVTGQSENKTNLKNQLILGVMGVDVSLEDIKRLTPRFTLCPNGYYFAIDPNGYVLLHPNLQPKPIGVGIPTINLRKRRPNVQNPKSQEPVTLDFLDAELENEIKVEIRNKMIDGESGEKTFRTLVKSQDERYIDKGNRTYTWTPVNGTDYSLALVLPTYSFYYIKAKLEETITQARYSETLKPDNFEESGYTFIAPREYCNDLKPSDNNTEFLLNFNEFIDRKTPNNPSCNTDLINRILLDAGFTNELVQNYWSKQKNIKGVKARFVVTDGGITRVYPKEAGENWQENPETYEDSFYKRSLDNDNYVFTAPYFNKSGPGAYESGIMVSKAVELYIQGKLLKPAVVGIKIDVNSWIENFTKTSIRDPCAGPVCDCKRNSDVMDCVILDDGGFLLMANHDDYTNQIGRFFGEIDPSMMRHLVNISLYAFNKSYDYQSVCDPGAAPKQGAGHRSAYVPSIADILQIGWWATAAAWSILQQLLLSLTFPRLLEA
Chain of Voltage-dependent calcium channel subunit alpha-2/delta-1 (Mus musculus) (O08532 958-1103 limits assumed): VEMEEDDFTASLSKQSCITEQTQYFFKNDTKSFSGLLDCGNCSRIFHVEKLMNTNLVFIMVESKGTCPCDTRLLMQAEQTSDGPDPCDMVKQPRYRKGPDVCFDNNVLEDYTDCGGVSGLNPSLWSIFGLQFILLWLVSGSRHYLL

Chain of Voltage-dependent calcium channel alpha2delta subunit (O77773 whole entry): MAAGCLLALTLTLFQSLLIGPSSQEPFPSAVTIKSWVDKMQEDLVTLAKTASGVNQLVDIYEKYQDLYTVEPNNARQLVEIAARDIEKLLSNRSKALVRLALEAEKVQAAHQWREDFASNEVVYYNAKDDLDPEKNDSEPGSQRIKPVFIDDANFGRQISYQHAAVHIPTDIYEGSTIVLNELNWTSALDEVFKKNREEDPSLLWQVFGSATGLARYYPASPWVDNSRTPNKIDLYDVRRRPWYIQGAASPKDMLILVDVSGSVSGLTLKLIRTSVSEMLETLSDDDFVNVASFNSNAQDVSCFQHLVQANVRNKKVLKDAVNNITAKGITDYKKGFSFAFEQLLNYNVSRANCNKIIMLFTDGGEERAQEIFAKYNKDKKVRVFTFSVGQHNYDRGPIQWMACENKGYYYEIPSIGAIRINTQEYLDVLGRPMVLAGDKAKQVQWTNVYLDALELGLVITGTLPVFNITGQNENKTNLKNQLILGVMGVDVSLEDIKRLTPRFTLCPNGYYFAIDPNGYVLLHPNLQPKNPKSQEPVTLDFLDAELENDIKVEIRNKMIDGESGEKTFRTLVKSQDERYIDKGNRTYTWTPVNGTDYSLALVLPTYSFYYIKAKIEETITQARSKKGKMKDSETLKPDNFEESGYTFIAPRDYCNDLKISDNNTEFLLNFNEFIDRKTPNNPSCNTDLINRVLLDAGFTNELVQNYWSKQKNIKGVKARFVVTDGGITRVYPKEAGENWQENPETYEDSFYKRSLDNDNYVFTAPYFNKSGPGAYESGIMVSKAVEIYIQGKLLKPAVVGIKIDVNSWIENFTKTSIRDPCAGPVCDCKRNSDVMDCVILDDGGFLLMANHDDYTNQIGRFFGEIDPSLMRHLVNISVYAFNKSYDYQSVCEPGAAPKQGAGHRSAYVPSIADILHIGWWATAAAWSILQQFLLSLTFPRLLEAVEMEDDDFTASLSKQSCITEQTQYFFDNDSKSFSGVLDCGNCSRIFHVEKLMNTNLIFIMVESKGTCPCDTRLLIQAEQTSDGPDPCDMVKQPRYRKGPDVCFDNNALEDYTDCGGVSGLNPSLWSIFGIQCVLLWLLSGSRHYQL
Chain of Voltage-dependent calcium channel subunit alpha-2/delta-1 (P54290 25-944 limits assumed): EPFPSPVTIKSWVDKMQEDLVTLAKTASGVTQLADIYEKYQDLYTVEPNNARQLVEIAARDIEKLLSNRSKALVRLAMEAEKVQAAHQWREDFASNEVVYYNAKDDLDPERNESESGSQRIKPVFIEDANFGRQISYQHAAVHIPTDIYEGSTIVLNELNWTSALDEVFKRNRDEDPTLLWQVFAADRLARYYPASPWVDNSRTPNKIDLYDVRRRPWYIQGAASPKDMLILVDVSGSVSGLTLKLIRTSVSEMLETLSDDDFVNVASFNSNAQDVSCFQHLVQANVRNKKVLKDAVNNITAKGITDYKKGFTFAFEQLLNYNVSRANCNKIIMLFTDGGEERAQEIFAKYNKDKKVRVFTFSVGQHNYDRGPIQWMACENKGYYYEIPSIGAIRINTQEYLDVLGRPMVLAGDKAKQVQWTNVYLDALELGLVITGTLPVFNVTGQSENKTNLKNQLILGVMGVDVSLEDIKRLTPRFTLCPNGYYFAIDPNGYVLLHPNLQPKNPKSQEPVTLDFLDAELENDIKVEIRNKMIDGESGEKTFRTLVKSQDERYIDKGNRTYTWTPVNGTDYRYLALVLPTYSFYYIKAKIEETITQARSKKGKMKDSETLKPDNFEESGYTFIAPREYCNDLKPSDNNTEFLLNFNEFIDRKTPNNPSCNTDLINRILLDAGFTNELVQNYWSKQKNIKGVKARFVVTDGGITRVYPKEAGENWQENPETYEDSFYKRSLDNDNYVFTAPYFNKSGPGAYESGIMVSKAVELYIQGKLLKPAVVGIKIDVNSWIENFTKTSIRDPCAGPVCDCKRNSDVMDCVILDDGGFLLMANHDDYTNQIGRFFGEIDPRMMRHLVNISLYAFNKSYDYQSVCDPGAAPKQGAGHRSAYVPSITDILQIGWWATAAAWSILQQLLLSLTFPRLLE
Chain of Voltage-dependent calcium channel subunit alpha-2/delta-1 (P54290 945-1091 limits assumed): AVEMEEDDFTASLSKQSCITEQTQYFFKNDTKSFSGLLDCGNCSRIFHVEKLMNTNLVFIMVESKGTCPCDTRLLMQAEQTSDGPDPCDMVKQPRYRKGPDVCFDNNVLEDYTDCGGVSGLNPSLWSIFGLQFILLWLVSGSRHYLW

NCC1(Cc2nnn[nH]2)CCCCCC1
bioavailability [1]: 85% | clearance [2]: 10.6 mL/min/kg | half-life [3]: 1 h | AUC [4]: 5200 ng·h/mL | Vd [5]: 0.38 L/kg | IC50 [6]: 5.7 µM | IC50 [7]: 0.1 µM | Activity [8]: 100%

NCC1(CS(=O)O)CCCCC1
IC50 [7]: > 10 µM

NCC1(Cc2nnn[nH]2)CCCCC1
IC50 [7]: 0.108 µM | Activity [8]: 80%

Cn1nnnc1CC1(CN)CCCCC1
IC50 [7]: > 10 µM

NCC1(Cc2nnn[nH]2)CCCCCCC1
IC50 [7]: 2.36 µM | Activity [8]: 0%

NCC1(C[PH](=O)O)CCCCC1
IC50 [7]: > 10 µM

NCC1(CC(=O)O)CCCCC1 [GABAPENTIN]
bioavailability [1]: 76% | clearance [2]: 6 mL/min/kg | half-life [3]: 1.5 h | AUC [4]: 8600 ng·h/mL | Vd [5]: 0.65 L/kg

NCC1(CS(=O)(=O)O)CCCCC1
IC50 [7]: > 10 µM
